Experimental data published in patent US20240317866A1, “Use of Anti-EGFR/Anti-Met Antibody to Treat Gastric or Esophageal Cancer” (Janssen Biotech, Inc., priority 2022, published 2024).

Test system: gastric cancer (GC, including GEJ cancer) expressing EGFR and/or cMet
Test: Phase 2a study of amivantamab monotherapy, gastric cancer cohort: response by RECIST Version 1.1, investigator judgement
Assay type: in vivo, human
Text: Approximately 30 participants with any expression level of EGFR, cMet, or both proteins are enrolled in each of the Phase 2a cohort. However, based on the priorexperiences investigating anti-EGFR andanti-cMet antibodies in gastroesophageal cancers, at least 20 participants expressing IHC 2+ or higher (defined as participants expressing EGFR IHC 2+ or above and/or cMet IHC 2+ or above) are enrolled. Additional enrollment in Phase 2a cohorts may be allowed to achieve this minimal enrollment.
This is an open-label, multicenter, multi-arm Phase 2 interventional study in participants with previously treated advanced or unresectable GC or EC who are 20 years or older (or the legal age of consent in the jurisdiction in which the study is taking place). Japanese participants with gastric/GEJ or EC who express varying degrees of EGFR, cMet, or both as determined by IHC locally or centrally are enrolled in the GC cohort or EC cohort.
The baseline disease assessments are performed as close as possible to the start of treatment, but no more than 28 days prior to the first dose. Subsequent assessments are performed at 6 weeks (+1 week) after initiation of study treatment administration, then every 6 weeks (±1 week) for the first 12 months and then every 12 weeks (±1 week) until objective radiographic disease progression. Timing for each disease assessment is relative to the first dose of study treatment administration, regardless of dose modifications, and continues until disease progression. Any other site at which new disease is suspected is also imaged.
For purposes of analysis, the following populations are defined: • (1) All Treated population: All participants who take at least 1 dose of study treatment; • (2) Response evaluable population: All participants who satisfy the following criteria: • Receive at least 1 dose of study treatment; • At least 2 post-baseline efficacy disease assessments, or discontinued treatment for any reason, or have disease progression/death prior to the second post-baseline disease assessment; • (3) Safety population: All participants who take at least 1 dose of study treatment; • (4) Pharmacokinetics population: All participants who receive at least 1 dose of study treatment and have at least 1 evaluable post-baseline measurement; • (5) Immunogenicity population: All participants who receive at least 1 dose of study treatment and have at least 1 evaluable post-baseline measurement.
The primary efficacy measure is ORR. Objective response rate is defined as the proportion of participants who achieve either CR or PR, determined by investigator assessment using RECIST Version 1.1. Confirmation of investigator-assessed ORR may be performed through IRC in the Phase 2b.
Disease Control Rate: Disease control rate is defined as the percentage of participants achieving complete or partial response or stable disease for at least 6 weeks as defined by RECIST Version1.1. The DCR and its 95% CI with Clopper-Pearson method are also calculated.
Next, response to treatment was evaluated. The “All Treated” patient population were patients who received at least 1 dose of study treatment.

[1] = all treated population, IHC 1+, N=5, 1,050/1,400 mg IV
[2] = all treated population, IHC 1+, N=5, 1,050/1,400 mg IV, number of participants
[3] = all treated population, IHC 2+, N=11, 1,050/1,400 mg IV
[4] = all treated population, IHC 2+, N=11, 1,050/1,400 mg IV, number of participants
[5] = all treated population, IHC 3+, N=9, 1,050/1,400 mg IV
[6] = all treated population, IHC 3+, N=9, 1,050/1,400 mg IV, number of participants
[7] = all treated population, IHC NA, N=4, 1,050/1,400 mg IV
[8] = all treated population, IHC NA, N=4, 1,050/1,400 mg IV, number of participants
[9] = all treated population, Total, N=29, 1,050/1,400 mg IV
[10] = all treated population, Total, N=29, 1,050/1,400 mg IV, number of participants
[11] = response evaluable population, IHC 1+, N=4, 1,050/1,400 mg IV
[12] = response evaluable population, IHC 1+, N=4, 1,050/1,400 mg IV, number of participants
[13] = response evaluable population, IHC 2+, N=11, 1,050/1,400 mg IV
[14] = response evaluable population, IHC 2+, N=11, 1,050/1,400 mg IV, number of participants
[15] = response evaluable population, IHC 3+, N=9, 1,050/1,400 mg IV
[16] = response evaluable population, IHC 3+, N=9, 1,050/1,400 mg IV, number of participants
[17] = response evaluable population, Total, N=24, 1,050/1,400 mg IV
[18] = response evaluable population, Total, N=24, 1,050/1,400 mg IV, number of participants

## amivantamab
[1]
  Disease control rate (CR + PR + SD): (20.0%)
  Not Evaluable (NE): (40.0%)
  Progressive Disease (PD): (40.0%)
[2]
  Complete response (CR): 0
  Disease control rate (CR + PR + SD): 1
  Not Evaluable (NE): 2
  Objective response rate (CR + PR): 0
  Partial response (PR): 0
  Progressive Disease (PD): 2
[3]
  Disease control rate (CR + PR + SD): (9.1%)
  Not Evaluable (NE): (9.1%)
  Progressive Disease (PD): (81.8%)
[4]
  Complete response (CR): 0
  Disease control rate (CR + PR + SD): 1
  Not Evaluable (NE): 1
  Objective response rate (CR + PR): 0
  Partial response (PR): 0
  Progressive Disease (PD): 9
[5]
  Disease control rate (CR + PR + SD): (44.4%)
  Objective response rate (CR + PR): (11.1%)
  Partial response (PR): (11.1%)
  Progressive Disease (PD): (55.6%)
[6]
  Complete response (CR): 0
  Disease control rate (CR + PR + SD): 4
  Not Evaluable (NE): 0
  Objective response rate (CR + PR): 1
  Partial response (PR): 1
  Progressive Disease (PD): 5
[7]
  Disease control rate (CR + PR + SD): (25.0%)
  Progressive Disease (PD): (75.0%)
[8]
  Complete response (CR): 0
  Disease control rate (CR + PR + SD): 1
  Not Evaluable (NE): 0
  Objective response rate (CR + PR): 0
  Partial response (PR): 0
  Progressive Disease (PD): 3
[9]
  Disease control rate (CR + PR + SD): (24.1%)
  Not Evaluable (NE): (10.3%)
  Objective response rate (CR + PR): (3.4%)
  Partial response (PR): (3.4%)
  Progressive Disease (PD): (65.5%)
[10]
  Complete response (CR): 0
  Disease control rate (CR + PR + SD): 7
  Not Evaluable (NE): 3
  Objective response rate (CR + PR): 1
  Partial response (PR): 1
  Progressive Disease (PD): 19
[11]
  Disease control rate (CR + PR + SD): (25.0%)
  Not Evaluable (NE): (25.0%)
  Progressive Disease (PD): (50.0%)
[12]
  Complete response (CR): 0
  Disease control rate (CR + PR + SD): 1
  Not Evaluable (NE): 1
  Objective response rate (CR + PR): 0
  Partial response (PR): 0
  Progressive Disease (PD): 2
[13]
  Disease control rate (CR + PR + SD): (9.1%)
  Not Evaluable (NE): (9.1%)
  Progressive Disease (PD): (81.8%)
[14]
  Complete response (CR): 0
  Disease control rate (CR + PR + SD): 1
  Not Evaluable (NE): 1
  Objective response rate (CR + PR): 0
  Partial response (PR): 0
  Progressive Disease (PD): 9
[15]
  Disease control rate (CR + PR + SD): (44.4%)
  Objective response rate (CR + PR): (11.1%)
  Partial response (PR): (11.1%)
  Progressive Disease (PD): (55.6%)
[16]
  Complete response (CR): 0
  Disease control rate (CR + PR + SD): 4
  Not Evaluable (NE): 0
  Objective response rate (CR + PR): 1
  Partial response (PR): 1
  Progressive Disease (PD): 5
[17]
  Not Evaluable (NE): (8.3%)
  Objective response rate (CR + PR): (4.2%)
  Partial response (PR): (4.2%)
  Progressive Disease (PD): (66.7%)
[18]
  Complete response (CR): 0
  Disease control rate (CR + PR + SD): 6
  Not Evaluable (NE): 2
  Objective response rate (CR + PR): 1
  Partial response (PR): 1
  Progressive Disease (PD): 16
